ChEMBL document CHEMBL4814009, “A new anti-austerity agent, 4'-O-methylgrynullarin from Derris scandens induces PANC-1 human pancreatic cancer cell death under nutrition starvation via inhibition of Akt/mTOR pathway” (2021)

Columns and labels:
[1] = test system: MIA PaCa-2; assay: Anti-austerity activity against human MIA PaCa-2 cells assessed as cell killing in nutrient deprived medium; assay type: functional
[2] = Anti-austerity activity against human KLM-1 cells assessed as cell killing in nutrient deprived medium; assay type: functional
[3] = test system: PANC-1; assay: Anti-austerity activity against human PANC-1 cells assessed as cell killing in nutrient deprived medium; assay type: functional
[4] = test system: PSN1; assay: Anti-austerity activity against human PSN1 cells assessed as cell killing in nutrient deprived medium; assay type: functional
[5] = biological target: RAC-alpha serine/threonine-protein kinase (Homo sapiens) (UniProt P31749); assay: Inhibition of Akt in human PANC-1 cells assessed as reduction in phosphorylation at Ser473 incubated for 6 hrs by Western blot analysis; assay type: cell-based; conditions: dose 1-10 µM
Chain of RAC-alpha serine/threonine-protein kinase (Homo sapiens) (P31749 whole entry): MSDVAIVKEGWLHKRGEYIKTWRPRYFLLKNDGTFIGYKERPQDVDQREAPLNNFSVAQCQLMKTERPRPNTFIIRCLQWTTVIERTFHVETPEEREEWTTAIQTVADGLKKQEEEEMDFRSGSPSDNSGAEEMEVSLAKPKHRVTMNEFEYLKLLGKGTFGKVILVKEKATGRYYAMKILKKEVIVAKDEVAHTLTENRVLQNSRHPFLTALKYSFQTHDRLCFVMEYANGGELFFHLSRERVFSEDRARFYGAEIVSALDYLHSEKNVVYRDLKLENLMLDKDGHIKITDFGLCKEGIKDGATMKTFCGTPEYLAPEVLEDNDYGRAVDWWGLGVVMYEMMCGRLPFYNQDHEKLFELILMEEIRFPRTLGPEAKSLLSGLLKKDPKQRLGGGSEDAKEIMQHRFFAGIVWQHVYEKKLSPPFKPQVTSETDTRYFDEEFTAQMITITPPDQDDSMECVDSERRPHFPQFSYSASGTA

[6] = biological target: Serine/threonine-protein kinase mTOR (Homo sapiens) (UniProt P42345); assay: Inhibition of mTOR in human PANC-1 cells assessed as reduction in phosphorylation at S2448 incubated for 6 hrs by Western blot analysis; assay type: cell-based; conditions: dose 1-10 µM
[7] = test system: PANC-1; assay: Inhibition of colony formation in human PANC-1 cells in nutrient rich DMEM medium measured treated for 24 hrs followed by replaced with fresh medium measured after 10 days by crystal violet staining based assay; assay type: functional, cell-based; conditions: dose 6.25-25 µM
[8] = test system: PANC-1; assay: Induction of apoptosis in human PANC-1 cells assessed as cell morphology by measuring red fluorescence incubated for 24 hrs in nutrient deprived medium by acridine orange and ethidium bromide dye based fluorescence microscopy analysis; assay type: functional; conditions: dose 1-5 µM
[9] = test system: PANC-1; assay: Antimigratory activity against human PANC1 cells assessed as wound area at 25 uM cultured in nutrient rich DMEM medium imaged every 10 mins for 24 hrs by quantitative real-time imaging based wound healing assay (reference value: 35%); assay type: functional

`COc1cc(C[C@H]2C(=O)OC[C@@H]2Cc2ccc(OC)c(OC)c2)ccc1O` [ARCTIGENIN] showed a PC50 [1] of 1.9 µM, a PC50 [2] of 0.8 µM and a PC50 [3] of 0.7 µM. The PC50 [4] was 0.7 µM.

Work on `CC(C)=CCc1cc(-c2coc3c(CC=C(C)C)c(O)cc(O)c3c2=O)cc(O)c1O` yielded a PC50 [1] of 10.9 µM, a PC50 [2] of 10.1 µM and a PC50 [3] of 10 µM. For the same compound, the PC50 [4] was 10.2 µM.

For `CC(C)=CCc1cc(-c2coc3cc(O)c(CC=C(C)C)c(O)c3c2=O)ccc1O` [LUPALBIGENIN], the PC50 [1] was 1.3 µM, the PC50 [2] was 1 µM and the PC50 [3] was 1 µM. For the same compound, the PC50 [4] was 1.5 µM.

`CC(C)=CCc1cc(-c2coc3cc(O)c(CC=C(C)C)c(O)c3c2=O)cc(O)c1O` showed a PC50 [1] of 0.8 µM, a PC50 [2] of 0.9 µM and a PC50 [3] of 0.7 µM. For the same compound, the PC50 [4] was 0.7 µM.

With `COc1c(O)cc(-c2coc3c(CC=C(C)C)c(O)cc(O)c3c2=O)cc1CC=C(C)C` the inhibition [5] was “Dose-Dependent Effect”, the PC50 [1] was 1.2 µM and the PC50 [2] was 1.6 µM. The inhibition [6] was “Dose-Dependent Effect”, the PC50 [3] was 1 µM and the inhibition [7] was “Dose-Dependent Effect”. The Activity [8] was “Dose-Dependent Effect”, the Activity [9] was 74% and the PC50 [4] was 1.8 µM.
